According to patent US6469063B1, “Inhibition of inflammation via inhibition of COX-2 gene transcription” (City of Hope, priority 1999, dated 2002):
Several values for one entry are separate records, joined by “and”; a condition that tells them apart may be missing. Equal values may be shown once. Entries after “also recorded” stand apart in the source; their conditions may differ.

Legend:
[1] = test system: PGE2 production (COX-2 activity); assay: PGE2 production in RIN m5F cells (RIA of conditioned medium); format: cell-based, rat; conditions: for PGE2 production in conditioned medium: 24 hours after addition of agent
Description: (§1) RIN m5F cells were cultured to near confluence in RPMi-1640 medium (Life Technologies, Inc., Grand Island, N.Y.) plus 10% FCS plus 1% HEPES and penicillin/streptomycin. Prior to addition of IL-1β the cells were depleted in RPMI-1640 medium plus 0.2% BSA for 24 hours. The cells were gently washed in PBS and depletion medium was added back. At this time CDC (Biomol Research Lab, Inc., Plymouth Meeting, PA) (1-10 μM) was added in certain experiments 60 minutes prior to IL-1β addition. 12-HETE (1-100 nM) and 15-HETE (1-100 nM) (Biomol Research Lab, Inc., Plymouth Meeting, Pa.) were added to certain experiments in 0.1% ethanol. The cells were cultured for an additional 24 hours at which time medium was collected for PGE2 assay. For mRNA experiments, total RNA was extracted from RIN m5F cells 3 hours after the addition of IL-1 β, 12-HETE, or 15-HETE. 12HETE and 15-HETE were stored at −70 C. in the dark and added to cell culture dishes in the dark. Control experiments included the addition of 0.1% ethanol alone to RIN m5F cell cultures.
In addition, PGE2 production was measured under the same conditions, but over a 24 hour period. COX-2 activity was determined by measuring the accumulation of PGE2 in the conditioned media. Cells were cultured in 24 well plates for 24 hours and subject to the experimental conditions described above. PGE2 was measured in conditioned medium using a commercial RIA kit. Statistical analysis of PGE2 levels was performed using the Student's t-test with GraphPad Prism™ software (GraphPad Software, Inc, San Diego, Calif.).

COX-2 protein [2] = assay: Western immunoblot of COX-2 protein expression in RIN m5F cells; format: cell-based, rat; conditions: 12-HETE 1-10 nM, 24 hours; for increase in COX-2 protein: IL-1β 0.3 ng/ml
Description: as §1
This Example investigates the mechanism(s) of this resistance. RIN m5F cells, cultured as set forth in Example 1, were stimulated with IL-1β and 12-HETE and total protein extracts were used for Western immunoblotting with an anti-COX-2 antibody.
The RIN m5F cells (−300 per blot) were lysed in a 1% Triton-0.1% SDS buffer in normal saline (pH 7.4) with 10 mM HEPES plus 1 mM EDTA and standard protease inhibitors. Cell lysates were centrifuged at 14,000×9 for 10 minutes and a modified BCA protein assay was performed. Protein aliquots (50 μg per sample) were treated with Laemmeli sample buffer and then heated to 100° C. for 5 minutes. Proteins were separated on 10% SDS-PAGE and transferred to polyvinylidene difluoride membranes (Immobilon-P) in 10 mM CAPS buffer, 10% methanol at pH 11. The immunoblots were blocked overnight in 5% nonfat dried milk in Tris buffer containing 0.1% Tween-20. […]

COX-1 mRNA = assay: Semi-quantitative RT-PCR of COX-1 gene expression in RIN m5F cells; format: cell-based, rat; conditions: same experiments as COX-2 mRNA
Description: as §1
(§2) RIN m5F cells were cultured as set forth in Example 1, in the presence or absence of IL-1β (0.3 ng/ml), 12-S-HETE (1-100 nM), or 15-S-HETE (1-100 nM) for […]. Total RNA was extracted and semiquantitative RT-PCR was performed using COX-2 specific primers.
Total RNA was extracted from RIN m5F cells with RNA STAT-60 (Tel-Test, Inc., Friendswood, Tex.). RNA (1 μg) was diluted in 12.5 μl DEPC-H20 and reverse transcribed with the 1st-Strand™ cDNA Synthesis Kit (CLONTECH laboratories, Inc., Palo Alto, Calif.), using oligo dT primers, recombinant RNase inhibitor, and MMLV reverse transcriptase to generate template cDNA for PCR amplification. Each PCR reaction was done on RNA from one 100 mm culture dish for the stated experimental conditions. Twenty picomoles of each primer (shown below) was mixed with 1 unit of Taq gold polymerase (Perkin Elmer, Inc.) in 50 μl final volume. […]
PCR products were analyzed by electrophoresis with 1.8% agarose gel. […]

COX-2 mRNA = assay: Semi-quantitative RT-PCR of COX-2 gene expression in RIN m5F cells; format: cell-based, rat; conditions: IL-1β 0.3 ng/ml, HETEs 1-100 nM
Description: as §1, §2
Total RNA was extracted from RIN m5F cells with RNA STAT-60 (Tel-Test, Inc., Friendswood, Tex.). RNA (1 μg) was diluted in 12.5 μl DEPC-H20 and reverse transcribed with the 1st-Strand™ cDNA Synthesis Kit (CLONTECH laboratories, Inc., Palo Alto, Calif.), using oligo dT primers, recombinant RNase inhibitor, and MMLV reverse transcriptase to generate template cDNA for PCR amplification. Each PCR reaction was done on RNA from one 100 mm culture dish for the stated experimental conditions. Twenty picomoles of each primer (shown below) was mixed with 1 unit of Taq gold polymerase (Perkin Elmer, Inc.) in 50 μl final volume. Samples were amplified with an initial 45 second denaturation step at 94° C. followed by 25 cycles of 45 seconds at 60° C., and 25 cycles of 2 minutes at 72° C.. The last cycle was extended for an additional 7 minutes at 72° C. PCR cycling was done with a Gene Amp PCR System 2400 (Perkin Elmer/Cetus Corp., Norwalk, Conn.). DNA primers were synthesized in the DNA/RNA Core Chemistry Laboratory at City of Hope National Medical Center. The sequences of the primers are shown below.
PCR products were analyzed by electrophoresis with 1.8% agarose gel. The DNA was transferred to nylon membranes and hybridized sequentially to ^32P-labeled probes for COX-1, COX-2, and GAPDH using a random Primed DNA labeling kit (Boehringer Mannheim). GAPDH was used as an internal control. Hybridization and autoradiography were performed according to previously published methods.

COX-2 gene transcription = conditions: higher concentrations; cited from earlier work
prostaglandin synthesis = conditions: 10-100 mg/kg; cited from earlier work
COX-2 protein [3] = assay: Western immunoblot of COX-2 protein in cultured intact porcine pancreatic islets; format: cell-based; conditions: 24 hours
Description: The RIN m5F cells (−300 per blot) were lysed in a 1% Triton-0.1% SDS buffer in normal saline (pH 7.4) with 10 mM HEPES plus 1 mM EDTA and standard protease inhibitors. Cell lysates were centrifuged at 14,000×9 for 10 minutes and a modified BCA protein assay was performed. Protein aliquots (50 μg per sample) were treated with Laemmeli sample buffer and then heated to 100° C. for 5 minutes. Proteins were separated on 10% SDS-PAGE and transferred to polyvinylidene difluoride membranes (Immobilon-P) in 10 mM CAPS buffer, 10% methanol at pH 11. The immunoblots were blocked overnight in 5% nonfat dried milk in Tris buffer containing 0.1% Tween-20. The blots were incubated for 2 hours at room temperature with anti COX-2 antibodies (Cayman Chemical Co., Ann Arbor, Mich.) diluted 1:2000 in the same Tris buffer without nonfat dried milk. The blots were washed and then incubated with horseradish peroxidase conjugated secondary antibodies at 1:2000 dilution. The protein bands were visualized with enhanced chemiluminescence reagents using X-AR film.
Next, Western immunoblots were performed on protein extracts from porcine islets treated in a similar fashion with IL-1β and lysed as set forth about for RIN m5F cells. Because of the concern that 12-HETE would not permeate the islet mass, the 12-LO inhibitor CDC (1 μM) was used instead with or without the addition of IL-1β, in order to determine the role of the 12-LO pathway on COX-2 protein expression.

5-lipoxygenase = target: T1, 5-lipoxygenase (Homo sapiens, UniProt P09917); conditions: cited from earlier work
T1 sequence (P09917 1-674): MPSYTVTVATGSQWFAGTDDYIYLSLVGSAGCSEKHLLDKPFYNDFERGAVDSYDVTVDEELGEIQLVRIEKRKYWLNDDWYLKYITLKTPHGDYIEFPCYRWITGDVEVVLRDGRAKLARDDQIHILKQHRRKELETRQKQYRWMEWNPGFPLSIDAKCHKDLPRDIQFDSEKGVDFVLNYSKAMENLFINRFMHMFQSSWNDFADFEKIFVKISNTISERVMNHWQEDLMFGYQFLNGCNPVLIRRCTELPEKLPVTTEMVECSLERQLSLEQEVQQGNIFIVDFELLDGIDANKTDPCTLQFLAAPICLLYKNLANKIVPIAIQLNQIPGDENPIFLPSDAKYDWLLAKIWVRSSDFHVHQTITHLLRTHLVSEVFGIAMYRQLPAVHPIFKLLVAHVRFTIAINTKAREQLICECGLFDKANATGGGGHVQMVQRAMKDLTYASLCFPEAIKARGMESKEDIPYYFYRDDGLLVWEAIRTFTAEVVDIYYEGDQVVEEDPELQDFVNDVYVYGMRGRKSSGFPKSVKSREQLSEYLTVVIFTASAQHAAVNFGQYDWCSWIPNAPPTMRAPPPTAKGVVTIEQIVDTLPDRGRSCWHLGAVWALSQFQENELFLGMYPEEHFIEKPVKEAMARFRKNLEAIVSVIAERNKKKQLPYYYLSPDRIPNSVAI

15-lipoxygenase = conditions: cited from earlier work
12-lipoxygenase = conditions: cited from earlier work
HIT cells = HIT cells treated with IL-1β for 24 hours; cited from earlier work
[4] = test system: leukocyte influx and prostaglandin synthesis; conditions: oral, 3 mg/kg, over a 24 hour period; cited from earlier work
PGE2 production = PGE2 production in islets from C57BL/6 and 12-LO knockout mice; format: cell-based, mouse; conditions: for PGE2 generated by IL-1β stimulated islets: 24 hours
Description: Generation of 12-LO knockout has been previously described. All animal studies were performed in accordance with guidelines set forth by the Research Animal Care Committee of City of Hope National Medical Center. Islet isolation and culturing techniques have been detailed previously. Briefly, mouse pancreas was removed, minced, and poured into a siliconized 25 ml Ehrlenmeyer flask with Type Xl collagenase solution (Sigma Chemical Co, St. Louis, Mo.). The pancreatic digest was incubated in a shaker-type water bath at 37 C. for 6-10 minutes. The digest was centrifuged, poured into a black back petri dish, and islets were picked by hand under a microscope. The islets were aliquoted into sterile 6-well plates (Sarstedt, Newton, N.C.) and cultured in RPMI 1640 medium containing 11 mM glucose and supplemented with 10% FCS and 1% HEPES. Typically, we isolate −75-100 islets per mouse. For PGE2 experiments, 100 islets per well in 300 μl RPMI medium were cultured overnight prior to additions. The following morning the medium was changed to RPMI 1640 medium plus 0.2% BSA and the islets were allowed to equilibrate for one hour. Then, IL-1β (R & D Systems, Minneapolis, Minn.) was added to the appropriate experiments. All islet experiments were run in triplicate and repeated three times for reproducibility.
Isolated islets (100 per experiment) were brought to culture and incubated overnight as described. After approximately 18 hours IL-1β was added to the medium and the islets were incubated for an additional 24 hours. PGE2 production was measured as set forth in Example 3.

Compound: CCCCC/C=C\C[C@@H](O)/C=C/C=C\C/C=C\CCCC(=O)O [12-HETE, 12-hydroxyeicosatetraenoic acid, reference compound]
- increase in PGE2 relative to 15-HETE ([1]; 24 hours): 10 fold
- PGE2 production in conditioned medium [1]: ~1250 pg/mL
- COX-2 protein stimulation compared to IL-1β (0.3 ng/ml) (COX-2 protein [2]): equipotent
- increase in COX-2 protein (COX-2 protein [2]): 3 fold
- COX-1 mRNA expression / gene transcription (COX-1 mRNA): No appreciable difference; also recorded: neither IL-1β,nor 12-HETE stimulated
- increase in COX-2 mRNA expression (COX-2 mRNA): 3 fold

Compound: CCCCC[C@H](O)/C=C/C=C\C/C=C\C/C=C\CCCC(=O)O [15-HETE, 15-hydroxyeicosatetraenoic acid, reference compound]
- PGE2 production in conditioned medium [1]: ~125 pg/mL
- increase in COX-2 mRNA expression (COX-2 mRNA): 1.5 fold

Compound: O=C(/C=C/c1ccc(O)c(O)c1)OCCc1ccccc1 [CAPE, caffeic acid phenethyl ester]
- concentration inhibiting COX-2 gene transcription (COX-2 gene transcription): 35 to 70 µM
- prostaglandin synthesis in rat carrageenan air pouch (prostaglandin synthesis): inhibited prostaglandin synthesis in a dose-dependent fashion

Compound: N#CC(=Cc1ccc(O)c(O)c1)C(=O)OCC=Cc1ccccc1 [CDC, cinnamamyl-3,4-dihydroxy-α-cyanocinnamate]
- effect on IL-1β stimulated increase in COX-2 protein (COX-2 protein [3]; CDC 1 μM plus IL-1β): completely inhibited; also recorded: completely eliminated this response
- effect on basal COX-2 protein levels (COX-2 protein [3]; CDC alone): did not appreciably affect
- inhibition of IL-1β induced PGE2 production ([1]; CDC 1 μM (1-10 μM)): completely inhibited; also recorded: statistically significant decrease; also recorded: statistically significant inhibition; also recorded: dose-dependent
- IL-1β induced PGE2 production in presence of CDC ([1]; CDC 1 μM added 60 minutes before IL-1β, 24 hours): 169+5 pg/ml
- IC50 (5-lipoxygenase): 3.33 µM
- IC50 (15-lipoxygenase): 1.89 µM
- IC50 (12-lipoxygenase): 0.063 µM

Compound: CS(=O)(=O)Nc1ccc([N+](=O)[O-])cc1OC1CCCCC1 [NS-398]
- glucose-stimulated insulin secretion (HIT cells): partially restored

Compound: CS(=O)(=O)Nc1ccc(Oc2ccc(F)cc2)s1 [RWJ63556]
- inhibition of leukocyte influx [4]: significant sustained inhibition
- inhibition of prostaglandin synthesis [4]: significant sustained inhibition

Compound: interleukin-1β [IL-1β]
- increase in COX-2 protein (COX-2 protein [3]; IL-1β 0.3 ng/ml): 3 fold
- PGE2 production in conditioned medium [1]: ~500 pg/ml and 388+27 pg/ml
- PGE2 production upon stimulation with IL-1β (words) (PGE2 production; 12-LO knockout mouse islets): fail to stimulate prostaglandin E2 production
- PGE2 generated by IL-1β stimulated islets (PGE2 production; 12-LO knockout mouse islets): 78+15 pg/ml
- PGE2 production upon stimulation with IL-1β (words) (PGE2 production; 12-LO knockout mouse islets, listed as IL-1 β): no appreciable PGE2 production
- increase in PGE2 production with IL-1β stimulation (PGE2 production; C57BL/6 mouse islets): 8 fold and 7 fold
- PGE2 generated by IL-1β stimulated islets (PGE2 production; C57BL/6 mouse islets): 5405+1012 pg/ml
- increase in COX-2 protein (COX-2 protein [2]): 2.5 fold
- COX-1 mRNA expression / gene transcription (COX-1 mRNA): neither IL-1β,nor 12-HETE stimulated
- COX-1 mRNA expression / gene transcription (COX-1 mRNA; listed as IL-1 β): No appreciable difference
- increase in COX-2 mRNA expression (COX-2 mRNA): 2 fold
- increase in COX-2 mRNA expression (COX-2 mRNA; listed as IL-1 β): 2 fold and 1.5 fold
